Laboratory results taken from ChEMBL document CHEMBL1201862, “PubChem BioAssay data set” (2004).
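Cultured in 96-well plates, cells were exposed to test compound for 48 hours across five concentrations. At the GI50, growth is halved.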 Calls of active or inactive are those of the source. Rule as the data show it: active = GI50 up to about 1.1 µM and inactive = higher.

Key:
Assay in all cases: inhibition of tumour cell growth, NCI panel, 48 h
[1] = system: 786-0
[2] = system: ACHN
[3] = system: DU-145
[4] = system: HCT-15
[5] = system: HOP-62
[6] = system: M14
[7] = system: MCF7
[8] = system: MOLT-4
[9] = system: NCI/ADR-RES
[10] = system: OVCAR-3
[11] = system: OVCAR-8
[12] = system: RXF 393
[13] = system: SF-539
[14] = system: T47D
[15] = system: TK-10
[16] = system: U-251
[17] = system: UACC-257
[18] = system: UO-31
[19] = system: NCI-H522
[20] = system: HCC 2998

| SMILES | GI50 [1] | GI50 [2] | GI50 [3] | GI50 [4] | GI50 [5] | GI50 [6] | GI50 [7] | GI50 [8] | GI50 [9] | GI50 [10] | GI50 [11] | GI50 [12] | GI50 [13] | GI50 [14] | GI50 [15] | GI50 [16] | GI50 [17] | GI50 [18] | GI50 [19] | GI50 [20] |
| --- | --- | --- | --- | --- | --- | --- | --- | --- | --- | --- | --- | --- | --- | --- | --- | --- | --- | --- | --- | --- |
| CNC(=O)C1OC(n2cnc3c(NCc4cccc(I)c4)nc(Cl)nc32)C(O)C1O (centres undefined) | 18.6 µM (inactive) | 11.8 µM (inactive) | 19.7 µM (inactive) | 1.06 µM | 12.7 µM (inactive) | 10.3 µM (inactive) | 12.8 µM (inactive) | 14.2 µM (inactive) | 11.7 µM (inactive) | 13 µM (inactive) | 13.8 µM (inactive) | 10.4 µM (inactive) | 11 µM (inactive) | 15.6 µM (inactive) | 16.3 µM (inactive) | 14.8 µM (inactive) | 11.4 µM (inactive) | 11.9 µM (inactive) |  |  |
| c1ccc(CN2CCC(CNc3ncnc4ccccc34)C2)cc1 (centres undefined) | > 100 µM (inactive) | > 100 µM (inactive) | > 100 µM (inactive) | > 100 µM | > 100 µM (inactive) | 17.3 µM (inactive) | 50.2 µM (inactive) | 34.4 µM (inactive) | 61.9 µM (inactive) | > 100 µM (inactive) | 83 µM (inactive) | > 100 µM (inactive) | 68.5 µM (inactive) | 93.5 µM (inactive) | 44.5 µM (inactive) | 76.9 µM (inactive) |  | 63.1 µM (inactive) | 23 µM (inactive) |  |
| O=S1OC[C@H](CCCl)O1 (some centres undefined) | > 100 µM (inactive) | > 100 µM (inactive) | > 100 µM (inactive) | > 100 µM | > 100 µM (inactive) | > 100 µM (inactive) | > 100 µM (inactive) | > 100 µM (inactive) | > 100 µM (inactive) | > 100 µM (inactive) | > 100 µM (inactive) |  | > 100 µM (inactive) | > 100 µM (inactive) | > 100 µM (inactive) | > 100 µM (inactive) | > 100 µM (inactive) | > 100 µM (inactive) | > 100 µM (inactive) | > 100 µM (inactive) |
| CN1CC2=C(N=C(S)NC2c2ccc(Cl)cc2)/C(=C/c2ccc(Cl)cc2)C1 (centres undefined) | 24.4 µM (inactive) | 23 µM (inactive) | 14.1 µM (inactive) | 13.8 µM | 19.2 µM (inactive) | 18.3 µM (inactive) | 22 µM (inactive) | 5.32 µM (inactive) | 17.2 µM (inactive) | 15.3 µM (inactive) | 17.5 µM (inactive) |  | 25.9 µM (inactive) | 15 µM (inactive) | 22.6 µM (inactive) | 17.2 µM (inactive) | 20 µM (inactive) | 25.8 µM (inactive) | 15.5 µM (inactive) | 16.6 µM (inactive) |
| COc1cc(/C=C2\N=C(c3ccccc3)N(c3nc4c(OC)ccc(OC)c4s3)C2=O)cc(OC)c1OC | 55 µM (inactive) | > 100 µM (inactive) | > 100 µM (inactive) | 95.7 µM | > 100 µM (inactive) | > 100 µM (inactive) | 34.3 µM (inactive) | 35.2 µM (inactive) | > 100 µM (inactive) | > 100 µM (inactive) | 86.1 µM (inactive) | 85.1 µM (inactive) |  | 32.4 µM (inactive) | > 100 µM (inactive) | 56.1 µM (inactive) | 55.6 µM (inactive) | > 100 µM (inactive) | 35.7 µM (inactive) | > 100 µM (inactive) |
| CCCCCCCC1(N=[N+]=[N-])C(=O)Nc2ccccc2C1=O (centres undefined) | 16.6 µM (inactive) | 14.4 µM (inactive) | 14.9 µM (inactive) | 21.9 µM | 17.7 µM (inactive) | 17.7 µM (inactive) | 19.1 µM (inactive) | 10.4 µM (inactive) | 18.9 µM (inactive) | 16.1 µM (inactive) |  | 12.6 µM (inactive) | 15.7 µM (inactive) | 14.6 µM (inactive) | 17.2 µM (inactive) | 15.1 µM (inactive) | 21 µM (inactive) | 12.7 µM (inactive) |  | 20.6 µM (inactive) |
| CC(=O)OCCC[C@@H]1C(=C(C)C)CCC2[C@@]1(C)CC[C@@]1(C)C[C@](C)(CCC=C(C)C)CC[C@]21C (some centres undefined) | > 100 µM (inactive) | > 100 µM (inactive) | > 100 µM (inactive) | > 100 µM | > 100 µM (inactive) | > 100 µM (inactive) | > 100 µM (inactive) | > 100 µM (inactive) | > 100 µM (inactive) | > 100 µM (inactive) | > 100 µM (inactive) |  | > 100 µM (inactive) | > 100 µM (inactive) | < 0.01 µM (active) | > 100 µM (inactive) | > 100 µM (inactive) | 13.5 µM (inactive) | > 100 µM (inactive) | > 100 µM (inactive) |
| CCOc1cc(C(c2c(O)c3ccccc3oc2=O)c2c(O)c3ccccc3oc2=O)ccc1OC | 18.3 µM (inactive) | 18 µM (inactive) | 19.3 µM (inactive) | 21.3 µM | 18.2 µM (inactive) | 19.1 µM (inactive) | 21 µM (inactive) | 35.9 µM (inactive) | 27.4 µM (inactive) | 16.3 µM (inactive) | 20 µM (inactive) |  | 20.7 µM (inactive) | 16.1 µM (inactive) | 18 µM (inactive) | 15.8 µM (inactive) | 16.4 µM (inactive) | 22.8 µM (inactive) | 18.3 µM (inactive) |  |
| Nc1cc2c(nnn2C2OC(COCc3ccccc3)C(OCc3ccccc3)C2OCc2ccccc2)c(=O)[nH]1 (centres undefined) | 19.6 µM (inactive) | 32.8 µM (inactive) | 35.9 µM (inactive) | 40.3 µM | 37.8 µM (inactive) | 13.5 µM (inactive) | 5.48 µM (inactive) | 7.85 µM (inactive) | > 100 µM (inactive) | 18.7 µM (inactive) | 18.9 µM (inactive) | 6.75 µM (inactive) | 21.6 µM (inactive) | 5.9 µM (inactive) | 10 µM (inactive) | 9.86 µM (inactive) | 14.9 µM (inactive) | 58.1 µM (inactive) | 18.9 µM (inactive) |  |
| O=C1c2ccccc2C(C2c3ccccc3C(=O)c3cc(Br)ccc32)c2ccc(Br)cc21 (centres undefined) | > 100 µM (inactive) | > 100 µM (inactive) | > 100 µM (inactive) | > 100 µM | > 100 µM (inactive) | > 100 µM (inactive) | > 100 µM (inactive) | 61 µM (inactive) | > 100 µM (inactive) | > 100 µM (inactive) | > 100 µM (inactive) | > 100 µM (inactive) |  | > 100 µM (inactive) | > 100 µM (inactive) | > 100 µM (inactive) | > 100 µM (inactive) | > 100 µM (inactive) | > 100 µM (inactive) | > 100 µM (inactive) |
| CC1(c2ccc(Cl)cc2)CC(c2ccc(Cl)cc2)=C(C#N)C(=C(C#N)C#N)N1 (centres undefined) | 11.1 µM (inactive) | 14.5 µM (inactive) | 14.9 µM (inactive) | 15.8 µM | 7.36 µM (inactive) | 18.5 µM (inactive) | 18.9 µM (inactive) | 6.81 µM (inactive) | 19.3 µM (inactive) | 11.3 µM (inactive) | 14.9 µM (inactive) | 13.1 µM (inactive) | 18.4 µM (inactive) | 12.6 µM (inactive) | 17.8 µM (inactive) | 12.2 µM (inactive) | 17.7 µM (inactive) | 16.3 µM (inactive) |  | 13.2 µM (inactive) |
| COC1/C=C\C=C(/C)C(=O)NC2=CC(=O)C(N)=C(CC(C)CC(OC)C(O)C(C)C=C(C)C1OC(N)=O)C2=O (centres undefined) | 0.368 µM (active) | 0.0935 µM (active) | < 0.0199 µM (active) | 0.333 µM | < 0.0199 µM (active) | 0.0204 µM (active) | 0.0416 µM (active) | 0.15 µM (active) | 28.7 µM (inactive) | 0.0681 µM (active) | < 0.0203 µM (active) | 2.93 µM (inactive) |  | 0.653 µM (active) | 0.321 µM (active) | < 0.01 µM (active) | 0.03 µM (active) | 0.184 µM (active) | 0.0234 µM (active) | 0.0268 µM (active) |
| CN(Cc1cnc2nc(N)nc(N)c2n1)c1ccc(C(=O)NC23CC4CC(CC(C4)C2)C3)cc1 | 7.24 µM (inactive) | 3.13 µM (inactive) | 10.7 µM (inactive) | 4.71 µM | 12.6 µM (inactive) | 4.14 µM (inactive) | 10.9 µM (inactive) | 6.68 µM (inactive) | 42.8 µM (inactive) | 16.9 µM (inactive) | 7.35 µM (inactive) | 17.1 µM (inactive) |  | 15.9 µM (inactive) | 14.5 µM (inactive) | 12 µM (inactive) | 10.9 µM (inactive) | 11.8 µM (inactive) |  |  |
| COC(=O)C1=C(C)NC(C)=C(C(=O)OC)C1c1nc2sccn2c1[N+](=O)[O-] | > 100 µM (inactive) | > 100 µM (inactive) | > 100 µM (inactive) | > 100 µM | > 100 µM (inactive) | > 100 µM (inactive) | > 100 µM (inactive) | > 100 µM (inactive) | > 100 µM (inactive) | > 100 µM (inactive) | 79.4 µM (inactive) | > 100 µM (inactive) | 77.3 µM (inactive) | > 100 µM (inactive) | > 100 µM (inactive) | > 100 µM (inactive) | > 100 µM (inactive) | > 100 µM (inactive) |  | > 100 µM (inactive) |
| O=c1[nH][nH]c(=S)c(=O)[nH]1 | > 100 µM (inactive) | > 100 µM (inactive) | > 100 µM (inactive) | > 100 µM | > 100 µM (inactive) | > 100 µM (inactive) | > 100 µM (inactive) | > 100 µM (inactive) | > 100 µM (inactive) | > 100 µM (inactive) | > 100 µM (inactive) | > 100 µM (inactive) | > 100 µM (inactive) | > 100 µM (inactive) | > 100 µM (inactive) | > 100 µM (inactive) | > 100 µM (inactive) | > 100 µM (inactive) | > 100 µM (inactive) |  |
